The numbers were not newly measured in publication PMC3971013 (Journal of natural products, 2013), which cites them from elsewhere.

Where two headings read alike, the source gives them in different places. Non-standard residues stand in square brackets, D forms with d. Residues, ends and D or L forms follow the SMILES beside them. *: point of attachment. Octanoyl(2R-Me,7,8-dehydro) = C=CCCCC[C@@H](C)C(=O)*; Oct7ynoyl(2R-Me) = C#CCCCC[C@@H](C)C(=O)*; NMeF = CN[C@@H](Cc1ccccc1)C(=O)O; X4 = CC(=O)CCCC[C@@H](C)C(=O)*; Oct(7)enoyl = C=CCCCCCC(=O)*; Oct(7)ynoyl = C#CCCCCCC(=O)*; NMeV = CN[C@H](C(=O)O)C(C)C; Hept6ynoyl = C#CCCCCC(=O)*; NMeA = CN[C@@H](C)C(=O)O; X3 = C=CCCCCC(=O)*

For the series, the system named is Vero Cells.
Setting [1] is: previously reported LD50 values.

As to `CC(=O)CCCC[C@@H](C)C(=O)N(C)[C@H](C(=O)N(C)[C@H](C(=O)N[C@H](C(=O)N(C)[C@@H](C)C(=O)N(C)[C@@H](Cc1ccccc1)C(N)=O)C(C)C)C(C)C)C(C)C` [Almiramide A (7), Almiramide A] (X4-[NMeV][NMeV]V[NMeA][NMeF]-NH2), the “LD50 Vero Cells” value under setting [1] was 113.1 µM.

For `C#CCCCC[C@@H](C)C(=O)N(C)[C@H](C(=O)N(C)[C@H](C(=O)N[C@H](C(=O)N(C)[C@@H](C)C(=O)N(C)[C@@H](Cc1ccccc1)C(N)=O)C(C)C)C(C)C)C(C)C` [Almiramide B (8), Almiramide B] ({Oct7ynoyl(2R-Me)}-[NMeV][NMeV]V[NMeA][NMeF]-NH2), under setting [1], the “LD50 Vero Cells” value is given as 52.3 µM.

`C=CCCCC[C@@H](C)C(=O)N(C)[C@H](C(=O)N(C)[C@H](C(=O)N[C@H](C(=O)N(C)[C@@H](C)C(=O)N(C)[C@@H](Cc1ccccc1)C(N)=O)C(C)C)C(C)C)C(C)C` [Almiramide C (9), Almiramide C] ({Octanoyl(2R-Me,7,8-dehydro)}-[NMeV][NMeV]V[NMeA][NMeF]-NH2): the “LD50 Vero Cells” value is on record as 33.1 µM.

For the compound `C#CCCCCC(=O)N(C)[C@H](C(=O)N(C)[C@H](C(=O)N(C)[C@H](C(=O)N(C)[C@@H](C)C(=O)N(C)[C@@H](Cc1ccccc1)C(=O)N(C)C)C(C)C)C(C)C)C(C)C` [Compound 10] (Hept6ynoyl-[NMeV][NMeV][NMeV][NMeA][NMeF]-NMe2), the “LD50 Vero Cells” value is on record as 155.7 µM.

Take `C=CCCCCC(=O)N(C)[C@H](C(=O)N(C)[C@H](C(=O)N(C)[C@H](C(=O)N(C)[C@@H](C)C(=O)N(C)[C@@H](Cc1ccccc1)C(=O)N(C)C)C(C)C)C(C)C)C(C)C` [Compound 11] (X3-[NMeV][NMeV][NMeV][NMeA][NMeF]-NMe2): the “LD50 Vero Cells” value is on record as 93.1 µM.

With `C#CCCCCCC(=O)N(C)[C@H](C(=O)N(C)[C@H](C(=O)N(C)[C@H](C(=O)N(C)[C@@H](C)C(=O)N(C)[C@@H](Cc1ccccc1)C(=O)N(C)C)C(C)C)C(C)C)C(C)C` [Compound 12] ({Oct(7)ynoyl}-[NMeV][NMeV][NMeV][NMeA][NMeF]-NMe2), the “LD50 Vero Cells” value under setting [1] was 159.4 µM.

For `C=CCCCCCC(=O)N(C)[C@H](C(=O)N(C)[C@H](C(=O)N(C)[C@H](C(=O)N(C)[C@@H](C)C(=O)N(C)[C@@H](Cc1ccccc1)C(=O)N(C)C)C(C)C)C(C)C)C(C)C` [Compound 13] ({Oct(7)enoyl}-[NMeV][NMeV][NMeV][NMeA][NMeF]-NMe2), the “LD50 Vero Cells” value is listed as 23.8 µM.

In the case of `C#CCCCCC(=O)N(C)[C@H](C(=O)N(C)[C@H](C(=O)N(C)[C@H](C(=O)N(C)[C@@H](C)C(=O)N(C)[C@@H](Cc1ccccc1)C(=O)O)C(C)C)C(C)C)C(C)C` [Compound 14] (Hept6ynoyl-[NMeV][NMeV][NMeV][NMeA][NMeF]-OH), the “LD50 Vero Cells” value under setting [1] is 281.1 µM.

Take `C=CCCCCC(=O)N(C)[C@H](C(=O)N(C)[C@H](C(=O)N(C)[C@H](C(=O)N(C)[C@@H](C)C(=O)N(C)[C@@H](Cc1ccccc1)C(=O)O)C(C)C)C(C)C)C(C)C` [Compound 15] (X3-[NMeV][NMeV][NMeV][NMeA][NMeF]-OH): the “LD50 Vero Cells” value is more than 70.0 µM.

For the compound `C#CCCCCCC(=O)N(C)[C@H](C(=O)N(C)[C@H](C(=O)N(C)[C@H](C(=O)N(C)[C@@H](C)C(=O)N(C)[C@@H](Cc1ccccc1)C(=O)O)C(C)C)C(C)C)C(C)C` [Compound 16] ({Oct(7)ynoyl}-[NMeV][NMeV][NMeV][NMeA][NMeF]-OH), the “LD50 Vero Cells” value under setting [1] was more than 68.9 µM.

Turning to `C=CCCCCCC(=O)N(C)[C@H](C(=O)N(C)[C@H](C(=O)N(C)[C@H](C(=O)N(C)[C@@H](C)C(=O)N(C)[C@@H](Cc1ccccc1)C(=O)O)C(C)C)C(C)C)C(C)C` [Compound 17] ({Oct(7)enoyl}-[NMeV][NMeV][NMeV][NMeA][NMeF]-OH), the “LD50 Vero Cells” value is 192.4 µM.

Regarding `C#CCCCCC(=O)N(C)[C@H](C(=O)N(C)[C@H](C(=O)N(C)[C@H](C(=O)N(C)[C@@H](C)C(=O)N(C)[C@@H](Cc1ccccc1)C(=O)OC)C(C)C)C(C)C)C(C)C` [Compound 18] (Hept6ynoyl-[NMeV][NMeV][NMeV][NMeA][NMeF]-OMe), under setting [1], the “LD50 Vero Cells” value is 41.4 µM.

Take `C=CCCCCC(=O)N(C)[C@H](C(=O)N(C)[C@H](C(=O)N(C)[C@H](C(=O)N(C)[C@@H](C)C(=O)N(C)[C@@H](Cc1ccccc1)C(=O)OC)C(C)C)C(C)C)C(C)C` [Compound 19] (X3-[NMeV][NMeV][NMeV][NMeA][NMeF]-OMe): the “LD50 Vero Cells” value is 24.7 µM.

On to `C#CCCCCCC(=O)N(C)[C@H](C(=O)N(C)[C@H](C(=O)N(C)[C@H](C(=O)N(C)[C@@H](C)C(=O)N(C)[C@@H](Cc1ccccc1)C(=O)OC)C(C)C)C(C)C)C(C)C` [Compound 20] ({Oct(7)ynoyl}-[NMeV][NMeV][NMeV][NMeA][NMeF]-OMe), for which the “LD50 Vero Cells” value under setting [1] is 27.0 µM.

On to `C=CCCCCCC(=O)N(C)[C@H](C(=O)N(C)[C@H](C(=O)N(C)[C@H](C(=O)N(C)[C@@H](C)C(=O)N(C)[C@@H](Cc1ccccc1)C(=O)OC)C(C)C)C(C)C)C(C)C` [Compound 21] ({Oct(7)enoyl}-[NMeV][NMeV][NMeV][NMeA][NMeF]-OMe), for which the “LD50 Vero Cells” value is recorded as 18.8 µM.
